Values joined by “and” are separate entries in the source; they are usually repeats but may differ in a detail not shown here. Equal entries are not always repeated.
Columns and labels:
[1] = system: resistant strain of Didymella sp. (gummy stem rot); assay: Petri dish test (zone of inhibition), radial growth, resistant strain of Didymella sp.; type: cell-based
Procedure: (§1) Petri dish tests (i.e., zone of inhibition tests) were conducted to compare the efficacy of azoxystrobin against both sensitive/susceptible and resistant strains of Didymella sp. (gummy stem rot).
Petri dish tests (i.e., zone of inhibition tests) were conducted to compare four rates of three adjuvant compositions (ADJ1, AJD2, and ADJ3 (N-methylpyrrolidone)) on sensitive and resistant strains of Didymella at a fixed treatment rate with a FRAC Group 11 fungicide, azoxystrobin.
Petri dish tests (i.e., zone of inhibition tests) were conducted to compare the efficacy of azoxystrobin (a strobilurin, quinone outside inhibitor (QOI), and member of Fungicide Resistance Action Committee (FRAC) Group 11) against resistant strains of Didymella sp. (gummy stem rot). Various organic solvents (adjuvants) were utilized at varying rates (6 fluid ounces/acre or 3 ounces/acre).

[2] = system: natural strains of Didymella; assay: Watermelon Didymella (Gummy Stem Rot) field test, natural infection, disease severity rating; type: in vivo, Didymella on watermelon plants; for disease severity, Fourth Week Rating: unit not given here; for disease severity, One Week Rating: unit not given here
Procedure: Watermelon plants were grown in normal field conditions subject to infection by natural strains of Didymella. The watermelons where then treated with: (a) a FRAC Group 11 fungicide, azoxystrobin alone; (b) ADJ1 alone; (c) azoxystrobin plus ADJ2; (d) azoxystrobin plus a typical commercial adjuvant (commercially available as Ad-Spray™); and (e) azoxystrobin plus chlorothalonil and commercial adjuvant. Disease severity ratings were taken and illustrated improved disease control of natural strains with ADJ1 compared to treatment with azoxystrobin alone or azoxystrobin plus commercial adjuvant, and equivalent control to azoxystrobin plus chlorothalonil and commercial adjuvant.

[3] = system: sensitive/susceptible strain of Didymella sp. (gummy stem rot); assay: Petri dish test (zone of inhibition), radial growth, sensitive/susceptible strain of Didymella sp.; type: cell-based; conditions: for radial growth, 18 hours / radial growth, 24 hours / radial growth, 36 hours / radial growth, 48 hours / radial growth, 12 hours: sensitive strain
Procedure: as §1
Petri dish tests (i.e., zone of inhibition tests) were conducted to compare four rates of three adjuvant compositions (ADJ1, AJD2, and ADJ3 (N-methylpyrrolidone)) on sensitive and resistant strains of Didymella at a fixed treatment rate with a FRAC Group 11 fungicide, azoxystrobin. […]

[4] = system: Morning Glory (MG); assay: Herbicide burndown testing, Morning Glory; conditions: in vivo; note: test concentration or dose not given here
Procedure: (§2) Burndown (BD) testing was conducted on Morning Glory (MG), Goosegrass (GG), Florida Beggarweed (FB) with an herbicide, Gramoxone® (paraquat—N,N′-dimethyl-4,4′-bipyridinium dichloride). Various amounts of Crop Oil Concentrate™ (COC) and an organic solvent adjuvant, Benzyl Acetate (BA), were utilized in conjunction with the herbicide. Crop Oil Concentrate™ (COC) is commonly used to enhance the deposition and spreading of herbicides on the leaf surface. The Crop Oil Concentrate™ (COC) included paraffinic petroleum oil, tall oil fatty acids and alkylphenol ethoxylates. The results are summarized in Table 20 and show a substantial increase in burndown rate when the organic solvent adjuvant is combined with an herbicide. The results also show a substantial increase in burndown rate compared to the combination of herbicide and Crop Oil Concentrate™ (COC).

[5] = system: Goosegrass (GG); assay: Herbicide burndown testing, Goosegrass; conditions: in vivo; note: test concentration or dose not given here
Procedure: as §2

[6] = system: resistant strains of Rhizoctonia solani (brown patch, stem rot, and/or root rot); assay: Petri dish test (zone of inhibition), resistant strains of Rhizoctonia solani; type: cell-based; conditions: organic solvent composition (where used) 6 fluid ounces/acre; for % Reduction in Radial Growth: 48 hours, vs untreated
Procedure: Petri dish tests (i.e., zone of inhibition tests) were conducted to compare the efficacy of tebuconazole (demethylation inhibitor, […], a triazole, and member of Fungicide Resistance Action Committee (FRAC) Group 3) against resistant strains of Rhizoctonia solani (brown patch, stem rot, and/or root rot). Various organic solvents (adjuvants) were utilized at 6 fluid ounces/acre and compared with just the active ingredient alone. The results are summarized in Table 19 and show the organic solvents provide a substantial resistant strain growth reduction compared to a FRAC Group 3 active ingredient utilized alone.

[7] = system: azoxystrobin resistant strain of Didymella; assay: Watermelon Didamella (Gummy Stem Rot) field test, inoculated plants, disease severity rating; type: in vivo, Didymella on watermelon plants; set-up: key: based on counts of active fungal infection sites on leaves; conditions: adjuvant rate 6 fl oz/acre
Procedure: Watermelon plants were inoculated with an azoxystrobin resistant strain of Didymella. The watermelon plants were then treated with: (a) a FRAC Group 11 fungicide, azoxystrobin alone; (b) azoxystrobin plus ADJ1; (c) azoxystrobin plus ADJ2; (d) azoxystrobin plus a typical commercial adjuvant (commercially available as Ad-Spray™); and (e) azoxystrobin plus chlorothalonil and commercial adjuvant (commercially available as Ad-Spray™). Disease severity ratings were taken and illustrated improved disease control of resistant strain with ADJ1 and ADJ2 compared to treatment with azoxystrobin alone, azoxystrobin plus commercial adjuvant, and azoxystrobin plus chlorothalonil and commercial adjuvant, especially at lower rates of azoxystrobin. Severity rating were based on multiple counts of active fungal infection sites on the leaves of the plants.

[8] = system: natural strains of Cercospora (known to be resistant to azoxystrobin); assay: Soybean Cercospora (Frog Eye Leaf Spot) field test, severity ratings; type: in vivo, Cercospora on soybean plants; conditions: azoxystrobin 0.5×
Procedure: Soybean plants were grown in normal field conditions subject to infection by natural strains of Cercospora (known to be resistant to azoxystrobin) then treated with: (a) a FRAC Group 11 fungicide, azoxystrobin alone; (b) azoxystrobin plus ADJ1; (c) azoxystrobin plus ADJ2; (d) azoxystrobin plus a typical commercial adjuvant (commercially available as Preference®). Disease severity ratings were taken and illustrated improved disease control with ADJ1 and ADJ2 compared to treatment with azoxystrobin alone or azoxystrobin plus commercial adjuvant. Duncan Multiple Range treatment of the data (indicated by “a,” “b,” “c,”, etc.) confirmed statistically valid different between the treatment results.

[9] = ADJ1 0.25× (adjuvant rate 4 fl oz/acre), Quadris 0
[10] = adjuvant 4 fl oz/acre (ADJ1 0.5×), Quadris 0
[11] = adjuvant 6 fl oz/acre ([…]), Quadris 0
[12] = adjuvant 8 fl oz/acre (1×), Quadris 0
[13] = azoxystrobin 0, additive alone (additive rate 0)
[14] = azoxystrobin 0, adjuvant only 6 fl oz/acre
[15] = adjuvant 2 fl oz/acre (0.25×), Quadris 0
[16] = adjuvant 4 fl oz/acre (0.5×), Quadris 0
[17] = adjuvant 8 fl oz/acre (ADJ1 1×), Quadris 0
[18] = azoxystrobin 5.5 fl oz/acre, no additive
[19] = azoxystrobin 11 fl oz/acre, no additive
[20] = azoxystrobin 16 fl oz/acre, no additive
[21] = azoxystrobin 22 fl oz/acre, no additive
[22] = azoxystrobin application rate 5.5
[23] = azoxystrobin application rate 11
[24] = azoxystrobin application rate 22
[25] = azoxystrobin 5.5 fl oz/acre, adjuvant rate 6 fl oz/acre
[26] = azoxystrobin 11 fl oz/acre, adjuvant rate 6 fl oz/acre

## CC(=O)OCc1ccccc1 [ADJ1, benzyl acetate]
[1]; [9]
  radial growth, 18 hours: 20.6 cm
  radial growth, 24 hours: 30.2 cm
  radial growth, 48 hours: 51.2 cm
[1]; [10]
  radial growth, 18 hours: 22.6 cm
  radial growth, 24 hours: 28.5 cm
  radial growth, 48 hours: 53.9 cm
[1]; [11]
  radial growth, 18 hours: 18.9 cm
  radial growth, 24 hours: 23.4 cm
  radial growth, 48 hours: 45.9 cm
[1]; [12]
  radial growth, 18 hours: 16.7 cm
  radial growth, 24 hours: 10.9 cm
  radial growth, 48 hours: 44.4 cm
[1]; [13]
  radial growth, 12 hours: 25 cm
  radial growth, 24 hours: 30 cm
[1]; text of Example 2
  growth reduction, in words: some efficacy but not at a commercial level control
[2]; ADJ1 only
  disease reduction, in words: Some disease reduction
[2]; [14]
  disease severity, Fourth Week Rating: 48.7
  disease severity, One Week Rating: 1.1
  disease severity, Third Week Rating: 38.9
  disease severity, Two Week Rating: 8
[3]; [15]
  radial growth, 18 hours: 19.9 cm
  radial growth, 24 hours: 24.9 cm
  radial growth, 36 hours: 39.3 cm
  radial growth, 48 hours: 47.9 cm
[3]; [16]
  radial growth, 18 hours: 17 cm
  radial growth, 24 hours: 23.7 cm
  radial growth, 36 hours: 32.3 cm
  radial growth, 48 hours: 46 cm
[3]; [11]
  radial growth, 18 hours: 15.7 cm
  radial growth, 24 hours: 26.1 cm
  radial growth, 36 hours: 38.8 cm
  radial growth, 48 hours: 48.1 cm
[3]; [17]
  radial growth, 18 hours: 15.7 cm
  radial growth, 24 hours: 21.3 cm
  radial growth, 36 hours: 40.6 cm
  radial growth, 48 hours: 50.1 cm
[3]; [13]
  radial growth, 12 hours: 24 cm
  radial growth, 24 hours: 41.1 cm
  radial growth, 36 hours: 54 cm
[3]; susceptible strain, equivalent of 2 oz/acre of ADJ1
  control compared to azoxystrobin alone, in words: comparable control

## CN1CCCC1=O [ADJ3, N-methylpyrrolidone]
[1]; [13]
  radial growth, 12 hours: 27 cm
  radial growth, 24 hours: 39 cm
[3]; [13]
  radial growth, 12 hours: 22.8 cm
  radial growth, 24 hours: 41 cm
  radial growth, 36 hours: 54.1 cm

## C[n+]1ccc(-c2cc[n+](C)cc2)cc1 [Paraquat]
[4]
  BD (MG) (%): 51% and 50% and 81%
[5]
  BD (GG) (%): 72% and 60% and 100%

## CC(C)(C)C(O)(CCc1ccc(Cl)cc1)Cn1cncn1 (stereo not shown) [Tebuconazole]
[6]; Tebuconazole 2 oz/acre
  Radial growth (cm) at 48 hours: 10.72 cm
  % Reduction in Radial Growth: 32%
[6]; Tebuconazole 4 oz/acre
  Radial growth (cm) at 48 hours: 7.8 cm
  % Reduction in Radial Growth: 50%

## CO/C=C(/C(=O)OC)c1ccccc1Oc1cc(Oc2ccccc2C#N)ncn1 [azoxystrobin]
[1]; [18]
  radial growth, 12 hours: 31 cm
  radial growth, 24 hours: 48 cm
[1]; [19]
  radial growth, 12 hours: 30 cm
  radial growth, 24 hours: 48 cm
[1]; [20]
  radial growth, 12 hours: 29 cm
  radial growth, 24 hours: 47 cm
[1]; [21]
  radial growth, 12 hours: 22 cm
  radial growth, 24 hours: 28 cm
[7]; [22]
  disease severity, Fourth Week Rating: 82.8
  disease severity, One Week Rating: 9.2
  disease severity, Third Week Rating: 63.3
  disease severity, Two Week Rating: 16.9
[7]; [23]
  disease severity, Fourth Week Rating: 65.7
  disease severity, One Week Rating: 13.3
  disease severity, Third Week Rating: 42
  disease severity, Two Week Rating: 16.7
[7]; [24]
  disease severity, Fourth Week Rating: 16.3
  disease severity, One Week Rating: 1.1
  disease severity, Third Week Rating: 4.8
  disease severity, Two Week Rating: 0.2
[2]; [25]
  disease severity, Fourth Week Rating: 80.8
  disease severity, One Week Rating: 2.1
  disease severity, Third Week Rating: 59.4
  disease severity, Two Week Rating: 6.6
[2]; [26]
  disease severity, Fourth Week Rating: 76.8
  disease severity, One Week Rating: 1.1
  disease severity, Third Week Rating: 49.5
  disease severity, Two Week Rating: 0
[8]
  Severity Ratings, August 31/Upper leaf: 10.3
  Severity Ratings, September 7/bottom leaf: 35.5
  Severity Ratings, September 7/higher Leaf: 16.3
  Severity Ratings, September 7/middle leaf: 3.2
  Severity Ratings, September 13/bottom leaf: 18
  Severity Ratings, September 20/higher leaf: 11.3
[3]; [18]
  radial growth, 12 hours: 15.3 cm
  radial growth, 24 hours: 24.9 cm
  radial growth, 36 hours: 34.3 cm
[3]; [19]
  radial growth, 12 hours: 12.5 cm
  radial growth, 24 hours: 16.9 cm
  radial growth, 36 hours: 23.6 cm
[3]; [20]
  radial growth, 12 hours: 13.4 cm
  radial growth, 24 hours: 20 cm
  radial growth, 36 hours: 28 cm
[3]; [21]
  radial growth, 12 hours: 15.8 cm
  radial growth, 24 hours: 22.9 cm
  radial growth, 36 hours: 31.9 cm
